Data: patent publication US7378375B1, “Substituted pyridine herbicides” (Syngenta Crop Protection, Inc., priority 2000, dated 2008)

Columns and labels:
[1] = test system: Monocotyledonous and dicotyledonous test plants; test: Herbicidal action before emergence of the plants (pre-emergence action), greenhouse pot test, 9-level rating after 4 weeks; type: in vivo; parameters: key: 9-level scale: 1 = complete damage, 9 = no effect; details: 250 g/ha, rated after 4 weeks, 9-level scale
Experimental: Herbicidal Action Before Emergence of the Plants (Pre-Emergence Action)
Monocotyledonous and dicotyledonous test plants are sown in standard soil in pots. Immediately after sowing, the test substances are sprayed on at an optimum dosage (500 l of water/ha) as an aqueous suspension (prepared from a wettable powder (example F3, b) according to WO 97/34485) or emulsion (prepared from an emulsion concentrate (example F1, c) according to WO 97/34485). The test plants are then grown under optimum conditions in a greenhouse.
After a test period of 4 weeks, the test is evaluated using a 9-level scale of ratings (1=complete damage, 9=no effect). Ratings of 1 to 4 (in particular 1 to 3) mean good to very good herbicidal action.

[2] = test system: Monocotyledonous and dicotyledonous test plants; test: Post-emergence herbicidal action, greenhouse pot test, sprayed at the 2- to 3-leaf stage, 9-level rating after 2 to 3 weeks; type: in vivo; parameters: key: 9-level scale: 1 = complete damage, 9 = no effect; details: 250 g/ha, rated after 2 to 3 weeks, 9-level scale
Experimental: Post-Emergence Herbicidal Action
Monocotyledonous and dicotyledonous test plants are grown in standard soil in pots. At the 2- to 3-leaf stage of the test plants, the test substances are sprayed at optimum dosage (500 l of water/ha) as an aqueous suspension (prepared from a wettable powder (example F3, b) according to WO 97/34485) or emulsion (prepared from an emulsion concentrate (example F1, c) according to WO 97/34485). The test plants are then grown further under optimum conditions in a greenhouse.
After a test period of 2 to 3 weeks, the test is evaluated using a 9-level scale of rating (1=complete damage, 9=no effect). Ratings of 1 to 4 (in particular 1 to 3) mean good to very good herbicidal action.

COCCOCc1nc(C(F)(F)F)ccc1C(=O)c1cnn(C)c1OS(=O)(=O)c1ccc(C)cc1 [A10-C29]
Pre-emergence action rating, Abutilon [1]: 1
Pre-emergence action rating, Amaranthus [1]: 1
Pre-emergence action rating, Digitaria [1]: 2
Pre-emergence action rating, Echino. [1]: 1
Pre-emergence action rating, Panicum [1]: 2
Post-emergence action rating, Abutilon [2]: 2
Post-emergence action rating, Amaranth [2]: 2
Post-emergence action rating, Chenop. [2]: 1
Post-emergence action rating, Digitaria [2]: 3
Post-emergence action rating, Echino. [2]: 3
Post-emergence action rating, Ipopur. [2]: 1
Post-emergence action rating, Panicum [2]: 2
Post-emergence action rating, Xanth. [2]: 2

COCCOCc1nc(C(F)(F)F)ccc1C(=O)c1cnn(C)c1O [A10-C5]
Pre-emergence action rating, Abutilon [1]: 1
Pre-emergence action rating, Amaranthus [1]: 1
Pre-emergence action rating, Chenop. [1]: 1
Pre-emergence action rating, Digitaria [1]: 3
Pre-emergence action rating, Echino. [1]: 1
Pre-emergence action rating, Panicum [1]: 2
Post-emergence action rating, Abutilon [2]: 2
Post-emergence action rating, Amaranth [2]: 1
Post-emergence action rating, Chenop. [2]: 1
Post-emergence action rating, Digitaria [2]: 2
Post-emergence action rating, Echino. [2]: 2
Post-emergence action rating, Ipopur. [2]: 2
Post-emergence action rating, Panicum [2]: 2
Post-emergence action rating, Xanth. [2]: 2

O=C(C1=C(O)C2CCC(C2)C1=O)c1ccc(C(F)(F)F)nc1COCC1CC1 (stereo not shown) [A56-B52]
Pre-emergence action rating, Abutilon [1]: 3
Pre-emergence action rating, Amaranthus [1]: 1
Pre-emergence action rating, Chenop. [1]: 1
Pre-emergence action rating, Digitaria [1]: 2
Pre-emergence action rating, Echino. [1]: 1
Pre-emergence action rating, Panicum [1]: 1
Post-emergence action rating, Abutilon [2]: 2
Post-emergence action rating, Amaranth [2]: 1
Post-emergence action rating, Chenop. [2]: 1
Post-emergence action rating, Digitaria [2]: 2
Post-emergence action rating, Echino. [2]: 2
Post-emergence action rating, Ipopur. [2]: 2
Post-emergence action rating, Panicum [2]: 1
Post-emergence action rating, Xanth. [2]: 2

COCCOCc1nc(C(F)(F)F)ccc1C(=O)C1=C(O)C(C)(C)CC(C)C1=O (stereo not shown) [A10-B4]
Pre-emergence action rating, Abutilon [1]: 3
Pre-emergence action rating, Amaranthus [1]: 1
Pre-emergence action rating, Chenop. [1]: 1
Pre-emergence action rating, Digitaria [1]: 3
Pre-emergence action rating, Echino. [1]: 1
Pre-emergence action rating, Panicum [1]: 2
Post-emergence action rating, Abutilon [2]: 1
Post-emergence action rating, Amaranth [2]: 2
Post-emergence action rating, Chenop. [2]: 1
Post-emergence action rating, Digitaria [2]: 1
Post-emergence action rating, Echino. [2]: 2
Post-emergence action rating, Ipopur. [2]: 1
Post-emergence action rating, Panicum [2]: 1
Post-emergence action rating, Xanth. [2]: 2

C=CCOCCOCc1nc(C(F)(F)F)ccc1C(=O)C1=C(O)C2CCC(C2)C1=O (stereo not shown) [A840-B52]
Pre-emergence action rating, Abutilon [1]: 2
Pre-emergence action rating, Amaranthus [1]: 2
Pre-emergence action rating, Chenop. [1]: 1
Pre-emergence action rating, Digitaria [1]: 2
Pre-emergence action rating, Echino. [1]: 2
Pre-emergence action rating, Panicum [1]: 1
Post-emergence action rating, Abutilon [2]: 3
Post-emergence action rating, Amaranth [2]: 2
Post-emergence action rating, Chenop. [2]: 1
Post-emergence action rating, Digitaria [2]: 3
Post-emergence action rating, Echino. [2]: 4
Post-emergence action rating, Ipopur. [2]: 3
Post-emergence action rating, Panicum [2]: 2
Post-emergence action rating, Xanth. [2]: 3

O=C(C1=C(O)C2CCC(C2)C1=O)c1ccc(C(F)(F)F)nc1COCc1ccccc1 (stereo not shown) [A67-B52]
Pre-emergence action rating, Abutilon [1]: 3
Pre-emergence action rating, Amaranthus [1]: 2
Pre-emergence action rating, Chenop. [1]: 1
Pre-emergence action rating, Digitaria [1]: 2
Pre-emergence action rating, Echino. [1]: 2
Pre-emergence action rating, Panicum [1]: 1
Post-emergence action rating, Abutilon [2]: 2
Post-emergence action rating, Amaranth [2]: 2
Post-emergence action rating, Chenop. [2]: 1
Post-emergence action rating, Digitaria [2]: 2
Post-emergence action rating, Echino. [2]: 2
Post-emergence action rating, Ipopur. [2]: 3
Post-emergence action rating, Panicum [2]: 2
Post-emergence action rating, Xanth. [2]: 2

COCCOCc1nc(C(F)(F)F)ccc1C(=O)c1cnn(C)c1OS(C)(=O)=O [A10-C28]
Pre-emergence action rating, Abutilon [1]: 1
Pre-emergence action rating, Amaranthus [1]: 1
Pre-emergence action rating, Chenop. [1]: 1
Pre-emergence action rating, Digitaria [1]: 3
Pre-emergence action rating, Echino. [1]: 2
Pre-emergence action rating, Panicum [1]: 1
Post-emergence action rating, Abutilon [2]: 3
Post-emergence action rating, Amaranth [2]: 2
Post-emergence action rating, Chenop. [2]: 1
Post-emergence action rating, Digitaria [2]: 4
Post-emergence action rating, Echino. [2]: 4
Post-emergence action rating, Ipopur. [2]: 3
Post-emergence action rating, Panicum [2]: 4
Post-emergence action rating, Xanth. [2]: 3

COCCOCc1nc(C(F)F)ccc1C(=O)C1=C(O)C2CCC(C2)C1=O (stereo not shown) [A646-B52]
Pre-emergence action rating, Abutilon [1]: 1
Pre-emergence action rating, Amaranthus [1]: 2
Pre-emergence action rating, Chenop. [1]: 1
Pre-emergence action rating, Digitaria [1]: 1
Pre-emergence action rating, Echino. [1]: 1
Pre-emergence action rating, Panicum [1]: 1
Post-emergence action rating, Abutilon [2]: 2
Post-emergence action rating, Amaranth [2]: 2
Post-emergence action rating, Chenop. [2]: 1
Post-emergence action rating, Digitaria [2]: 2
Post-emergence action rating, Echino. [2]: 2
Post-emergence action rating, Ipopur. [2]: 2
Post-emergence action rating, Panicum [2]: 1
Post-emergence action rating, Xanth. [2]: 2

COCCOCc1nc(C(F)(F)F)ccc1C(=O)C1=C(O)CC(C)CC1=O (stereo not shown) [A10-B111]
Pre-emergence action rating, Abutilon [1]: 1
Pre-emergence action rating, Amaranthus [1]: 1
Pre-emergence action rating, Digitaria [1]: 1
Pre-emergence action rating, Echino. [1]: 1
Pre-emergence action rating, Panicum [1]: 1
Post-emergence action rating, Abutilon [2]: 3
Post-emergence action rating, Amaranth [2]: 2
Post-emergence action rating, Chenop. [2]: 1
Post-emergence action rating, Digitaria [2]: 2
Post-emergence action rating, Echino. [2]: 3
Post-emergence action rating, Ipopur. [2]: 3
Post-emergence action rating, Panicum [2]: 2
Post-emergence action rating, Xanth. [2]: 3
